Our source for the IC50 values is patent US9040533B2, “Oxime-substituted-quinoxaline-type piperidine compounds as ORL-1 modulators” (priority 2012, dated 2015).

Holding throughout (assay): biochemical
In experiment [1] the target is CYP3A4 (Homo sapiens, UniProt P08684).
The target in experiment [2] is CYP2C19 (Homo sapiens, UniProt P33261).
The target in experiment [3] is CYP2C9 (Homo sapiens, UniProt P11712).
Experiment [4] has as its target CYP2D6 (Homo sapiens, UniProt P10635).
Experiment [5] concerns the target T1, CYP1A2 (Homo sapiens, UniProt P05177).
T1 sequence (P05177 1-516): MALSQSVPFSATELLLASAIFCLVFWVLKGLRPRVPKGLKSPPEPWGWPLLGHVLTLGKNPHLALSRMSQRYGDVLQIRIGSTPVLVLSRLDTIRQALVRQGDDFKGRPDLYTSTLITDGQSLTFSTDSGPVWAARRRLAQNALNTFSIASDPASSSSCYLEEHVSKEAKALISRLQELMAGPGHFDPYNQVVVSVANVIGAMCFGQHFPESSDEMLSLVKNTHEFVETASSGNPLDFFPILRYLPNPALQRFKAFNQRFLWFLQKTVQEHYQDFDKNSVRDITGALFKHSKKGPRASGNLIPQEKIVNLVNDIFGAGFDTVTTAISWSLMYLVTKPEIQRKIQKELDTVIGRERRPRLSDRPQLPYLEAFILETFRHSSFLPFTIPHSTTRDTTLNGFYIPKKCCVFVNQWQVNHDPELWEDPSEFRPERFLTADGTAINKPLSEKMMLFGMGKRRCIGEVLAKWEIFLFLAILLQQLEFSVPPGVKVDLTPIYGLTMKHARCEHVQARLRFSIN

pIC50: −log10 of the molar value. Some results are limits rather than exact numbers.

CYP3A4, sequence (P08684 whole entry): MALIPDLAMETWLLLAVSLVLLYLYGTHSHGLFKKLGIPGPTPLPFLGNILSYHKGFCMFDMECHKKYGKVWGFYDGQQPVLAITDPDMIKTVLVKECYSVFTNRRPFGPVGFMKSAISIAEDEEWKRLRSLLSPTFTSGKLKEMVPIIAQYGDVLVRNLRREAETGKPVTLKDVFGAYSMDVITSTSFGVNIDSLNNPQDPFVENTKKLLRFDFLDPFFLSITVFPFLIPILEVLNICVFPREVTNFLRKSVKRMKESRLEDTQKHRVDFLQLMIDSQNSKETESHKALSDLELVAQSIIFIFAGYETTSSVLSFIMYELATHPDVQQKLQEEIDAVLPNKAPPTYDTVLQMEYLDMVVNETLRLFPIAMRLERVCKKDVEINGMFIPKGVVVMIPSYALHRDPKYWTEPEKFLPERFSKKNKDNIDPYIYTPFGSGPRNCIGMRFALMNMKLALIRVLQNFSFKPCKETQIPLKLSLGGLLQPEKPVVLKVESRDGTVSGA
CYP2C19, sequence (P33261 whole entry): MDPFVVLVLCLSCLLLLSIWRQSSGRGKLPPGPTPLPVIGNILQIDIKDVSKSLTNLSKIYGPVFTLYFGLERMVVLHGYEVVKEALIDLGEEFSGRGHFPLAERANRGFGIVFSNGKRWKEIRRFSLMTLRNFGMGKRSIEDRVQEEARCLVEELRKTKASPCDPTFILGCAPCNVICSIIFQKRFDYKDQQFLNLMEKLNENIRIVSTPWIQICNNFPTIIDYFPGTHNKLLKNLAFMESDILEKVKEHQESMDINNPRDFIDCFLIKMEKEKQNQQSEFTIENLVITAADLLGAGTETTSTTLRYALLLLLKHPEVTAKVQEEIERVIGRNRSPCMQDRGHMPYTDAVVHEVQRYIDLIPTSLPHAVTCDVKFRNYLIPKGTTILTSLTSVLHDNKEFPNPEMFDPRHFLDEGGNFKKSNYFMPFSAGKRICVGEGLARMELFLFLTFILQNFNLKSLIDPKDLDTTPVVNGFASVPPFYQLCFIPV
CYP2C9, sequence (P11712 whole entry): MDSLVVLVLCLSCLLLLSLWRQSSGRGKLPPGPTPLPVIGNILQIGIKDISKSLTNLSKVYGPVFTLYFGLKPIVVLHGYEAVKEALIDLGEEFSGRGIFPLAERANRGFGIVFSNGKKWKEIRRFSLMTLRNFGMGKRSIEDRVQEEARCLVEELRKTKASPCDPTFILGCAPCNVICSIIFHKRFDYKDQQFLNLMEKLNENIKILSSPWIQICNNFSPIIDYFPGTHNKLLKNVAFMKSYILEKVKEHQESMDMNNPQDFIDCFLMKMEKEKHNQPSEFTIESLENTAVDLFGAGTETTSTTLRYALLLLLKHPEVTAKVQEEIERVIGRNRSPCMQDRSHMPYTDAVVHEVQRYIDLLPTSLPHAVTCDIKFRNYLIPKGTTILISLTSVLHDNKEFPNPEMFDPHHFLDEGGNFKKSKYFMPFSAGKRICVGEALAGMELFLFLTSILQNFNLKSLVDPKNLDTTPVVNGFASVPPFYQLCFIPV
CYP2D6, sequence (P10635 whole entry): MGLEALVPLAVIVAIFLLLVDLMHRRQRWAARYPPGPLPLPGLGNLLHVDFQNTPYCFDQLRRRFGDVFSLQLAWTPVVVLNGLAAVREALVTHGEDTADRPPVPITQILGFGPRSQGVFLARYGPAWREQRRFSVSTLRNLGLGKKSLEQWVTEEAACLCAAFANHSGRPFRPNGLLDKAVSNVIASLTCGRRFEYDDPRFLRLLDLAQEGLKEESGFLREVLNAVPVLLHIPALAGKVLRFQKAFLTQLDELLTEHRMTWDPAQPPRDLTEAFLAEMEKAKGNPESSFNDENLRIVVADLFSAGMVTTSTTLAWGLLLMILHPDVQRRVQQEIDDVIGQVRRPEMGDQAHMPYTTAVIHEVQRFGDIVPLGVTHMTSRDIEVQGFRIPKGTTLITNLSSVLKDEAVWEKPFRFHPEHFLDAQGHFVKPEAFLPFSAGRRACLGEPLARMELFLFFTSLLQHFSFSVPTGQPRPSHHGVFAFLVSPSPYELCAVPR

For the compound `CON=C(CCC(=O)O)c1nc2ccccc2n([C@H]2C[C@H]3CCC[C@@H](C2)N3C2CC3CCCC(C3)C2)c1=O` (stereo partly drawn) [Compound 2, 4-[4-((1R,3R)—(S)-9-bicyclo[3.3.1]non-3-yl-9-aza-bicyclo[3.3.1]non-3-yl)-3-oxo-3,4-dihydro-quinoxalin-2-yl]-4-methoxyimino-butyric acid], the pIC50 in experiment [1], in experiment [2], in experiment [3], in experiment [4] and in experiment [5] was below 4.70 throughout.

`O=C(O)CCC(=NOCCO)c1nc2ccccc2n([C@H]2C[C@H]3CCC[C@@H](C2)N3C2CC3CCCC(C3)C2)c1=O` (stereo partly drawn) [Compound 3, 4-[4-((1R,3R)—(S)-9-Bicyclo[3.3.1]non-3-yl-9-aza-bicyclo[3.3.1]non-3-yl)-3-oxo-3,4-dihydro-quinoxalin-2-yl]-4-(2-hydroxy-ethoxyimino)-butyric acid]: the pIC50 in experiment [1], in experiment [2], in experiment [3], in experiment [4] and in experiment [5] was below 4.70 each time.

On to `O=C(O)/C(=N\OCCO)c1nc2ccccc2n([C@H]2C[C@H]3CCC[C@@H](C2)N3C2CC3CCCC(C3)C2)c1=O` (some centres unmarked) [Compound 4], for which the negative logarithm of the IC50 (pIC50) in experiment [1], in experiment [2], in experiment [3], in experiment [4] and in experiment [5] was below 4.70 throughout.

As for `CCN(CC)C(=O)CO/N=C(\C(=O)O)c1nc2ccccc2n([C@H]2C[C@H]3CCC[C@@H](C2)N3C2CC3CCCC(C3)C2)c1=O` (stereo partly drawn) [Compound 5, [4-((1R,3R,7S)-9-bicyclo[3.3.1]non-3-yl-9-aza-bicyclo[3.3.1]non-3-yl)-3-oxo-3,4-dihydro-quinoxalin-2-yl]-diethylcarbamoylmethoxyimino-acetic acid], the negative logarithm of the IC50 (pIC50) in experiment [1], in experiment [2], in experiment [3], in experiment [4] and in experiment [5] was below 4.70 throughout.

`O=C(O)CCC(=NO)c1nc2ccccc2n([C@H]2C[C@H]3CCC[C@@H](C2)N3C2CC3CCCC(C3)C2)c1=O` (stereo partly drawn) [Compound 7, 4-[4-((1R,3R)—(S)-9-bicyclo[3.3.1]non-3-yl-9-aza-bicyclo[3.3.1]non-3-yl)-3-oxo-3,4-dihydro-quinoxalin-2-yl]-4-hydroxyimino-butyric acid]: the pIC50 in experiment [1], in experiment [2], in experiment [3], in experiment [4] and in experiment [5] was below 4.70 throughout.

Turning to `CO/N=C(\CCC(=O)O)c1nc2ccccc2n([C@H]2C[C@H]3CCC[C@@H](C2)N3C2CCCCCCCCC2)c1=O` [Compound 9, 4-[4-((1R,3R,7S)-9-cyclodecyl-9-aza-bicyclo[3.3.1]non-3-yl)-3-oxo-3,4-dihydro-quinoxalin-2-yl]-4-methoxyimino-butyric acid], the pIC50 in experiment [1], in experiment [2], in experiment [3], in experiment [4] and in experiment [5] was below 4.70 each time.

Consider `CCO/N=C(\CCC(=O)O)c1nc2ccccc2n([C@H]2C[C@H]3CCC[C@@H](C2)N3C2CC3CCCC(C3)C2)c1=O` (stereo partly drawn) [Compound 11, 4-[4-((1R,3R,7S)-9-bicyclo[3.3.1]non-3-yl-9-aza-bicyclo[3.3.1]non-3-yl)-3-oxo-3,4-dihydro-quinoxalin-2-yl]-4-ethoxyimino-butyric acid], for which the pIC50 in experiment [1], in experiment [2], in experiment [3], in experiment [4] and in experiment [5] was below 4.70 in each case.

Consider `CON=C(CCC(=O)O)c1nc2ccccc2n([C@H]2C[C@H]3CC[C@@H](C2)N3C2CC3CCCCC(C3)C2)c1=O` (stereo partly drawn) [Compound 12, 4-(4-((1R,3R)-8-(bicyclo[4.3.1]decan-8-yl)-8-azabicyclo[3.2.1]octan-3-yl)-3-oxo-3,4-dihydroquinoxalin-2-yl)-4-(methoxyimino)butanoic acid], for which the pIC50 in experiment [1], in experiment [2], in experiment [3], in experiment [4] and in experiment [5] was below 4.70 each time.

With `O=C(O)C(=NOCCO)c1nc2ccccc2n([C@H]2C[C@H]3CCC[C@@H](C2)N3C2CC3CCCCC(C3)C2)c1=O` (some centres unmarked) [Compound 15], the pIC50 in experiment [1], in experiment [2], in experiment [3], in experiment [4] and in experiment [5] was below 4.70 in each case.

With `C/C(=N\OCC(=O)O)c1nc2ccccc2n([C@H]2C[C@H]3CCC[C@@H](C2)N3C2CC3CCCC(C3)C2)c1=O` (some centres unmarked) [Compound 16], the pIC50 in experiment [1], in experiment [2], in experiment [3], in experiment [4] and in experiment [5] was below 4.70 in each case.

Take `CON=C(C(=O)O)c1nc2ccccc2n([C@H]2C[C@H]3CCC[C@@H](C2)N3C2CC3CCCCC(C3)C2)c1=O` (some centres unmarked) [Compound 17]: the pIC50 in experiment [1], in experiment [2], in experiment [3], in experiment [4] and in experiment [5] was below 4.70 each time.

As for `CC[C@@H]1C[C@H]2CC(N3[C@@H]4CCC[C@H]3CC(n3c(=O)c(/C(CCC(=O)O)=N/OC)nc5ccccc53)C4)C[C@@H](C1)C2` (some centres unmarked) [Compound 25], the pIC50 in experiment [1], in experiment [3], in experiment [4] and in experiment [5] was below 4.70 in each case.

For `CCO/N=C(\CCC(=O)O)c1nc2ccccc2n([C@H]2C[C@H]3CCC[C@@H](C2)N3C2CC3CC(CC)CC(C3)C2)c1=O` (some centres unmarked) [Compound 26], the negative logarithm of the IC50 (pIC50) in experiment [1], in experiment [3], in experiment [4] and in experiment [5] was below 4.70 in each case.

With `CCN(CC)CCO/N=C(\CCC(=O)O)c1nc2ccccc2n(C2C[C@H]3CCC[C@@H](C2)N3C2C[C@@H]3C[C@@H](C)C[C@H](C2)C3)c1=O` (some centres unmarked) [Compound 27], the pIC50 in experiment [1] is 5.05; in experiment [3], below 4.70; in experiment [4], 5.06; in experiment [5], below 4.70.

Turning to `CC1CC2CC(C1)CC(N1[C@@H]3CCC[C@H]1C[C@@H](n1c(=O)c(/C(CCC(=O)O)=N/OCCCN(C)C)nc4ccccc41)C3)C2` (some centres unmarked) [Compound 28], the pIC50 in experiment [1] was 5.21; in experiment [3] it was below 4.70; in experiment [4] it was 5.52; in experiment [5], below 4.70.

Turning to `CC1CC2CC(C1)CC(N1[C@@H]3CCC[C@H]1C[C@@H](n1c(=O)c(/C(CCC(=O)O)=N/OCCN(C)C)nc4ccccc41)C3)C2` (some centres unmarked) [Compound 29], the negative logarithm of the IC50 (pIC50) in experiment [1] is below 4.70; in experiment [3], below 4.70; in experiment [4], 4.94; in experiment [5], below 4.70.

For `CCC1CC2CC(C1)CC(N1[C@@H]3CCC[C@H]1C[C@@H](n1c(=O)c(/C(CCC(=O)O)=N/OCCN(C)C)nc4ccccc41)C3)C2` (some centres unmarked) [Compound 34], the pIC50 was 4.76 in experiment [1], below 4.70 in experiment [3], below 4.70 in experiment [4] and 4.79 in experiment [5].

Regarding `CC[C@@H]1C[C@H]2CC(N3[C@@H]4CCC[C@H]3CC(n3c(=O)c(/C(CCC(=O)O)=N/OCCCN(C)C)nc5ccccc53)C4)C[C@@H](C1)C2` (some centres unmarked) [Compound 35], the pIC50 in experiment [1], in experiment [3], in experiment [4] and in experiment [5] was below 4.70 each time.
